From US20030148970A1, “Methods for specifically inhibiting histone deacetylase-4” (priority 2001, published 2003)

Columns and labels:
human HDAC-3 = target: T1, human HDAC-3 (Homo sapiens, UniProt O15379); experiment: histone deacetylase enzyme assay, HDAC-3; type: biochemical
T1 construct: made in house; host or cells: insect cells (baculovirus expression system)
Description: (§1) The other HDAC isotypes, HDAC-3 and HDAC-4, were purified directly on an anti-Flag affinity column.
(§2) For the deacetylase assay, 20,000 cpm of an [^3H]-metabolically-labeled acetylated histone was used as a substrate. Histones were incubated with cloned recombinant human HDAC enzymes at 37° C. […] All assay conditions were pre-determined to be certain that each reaction was linear. Reactions were stopped by adding acetic acid (0.04 M final concentration) and HCl (250 mM, final concentration). The mixture was extracted with ethyl acetate, and the released [3H]-acetic acid was quantified by liquid scintillation counting. For the inhibition studies, HDAC enzyme was preincubated with test compounds for 30 minutes at 4° C. prior to the start of the enzymatic assay. IC50 values for HDAC enzyme inhibitors were identified with dose response curves for each individual compound and, thereby, obtaining a value for the concentration of inhibitor that produced fifty percent of the maximal inhibition.

p21 = p21 induction by small molecules; type: cell-based
[1] = test system: acetylated histone H-4 in T24 human bladder cancer cells; experiment: inhibition of HDAC activity in whole cells (acetylated histone H-4 Western); type: cell-based; conditions: 16 hours
Description: T24 human bladder cancer cells (ATCC, Manassas, Va.) growing in culture were incubated with test compounds for 16 hours. Histones were extracted from the cells by standard procedures (see e.g. Yoshida et al., supra) after the culture period. Twenty μg total core histone protein was loaded onto SDS/PAGE and transferred to nitrocellulose membranes, which were then reacted with polyclonal antibody specific for acetylated histone H-4 (Upstate Biotech Inc., Lake Placid, […].). Horse Radish Peroxidase conjugated secondary antibody was used at a dilution of 1:5000 to detect primary antibody binding. The secondary antibody binding was visualized by use of the Enhanced chemiluminescence (ECL) detection kit (Amersham-Pharmacia Biotech., Inc., Piscataway, N.J.). After exposure to film, acetylated H-4 signal was quantitated by densitometry.

[2] = test system: human colon cancer HCT116 cells; experiment: MTT assay of cell proliferation and cytotoxicity; type: cell-based; conditions: HCT-116, 48 hours
Description: Four thousand five hundred (4,500) human colon cancer HCT116 cells (ATCC, Manassas, Va. were used in an MTT (3-[4,5-dimethylthiazol-2-yl]-2,5 diphenyl tetrazolium bromide) assay to quantitatively determine cell proliferation and cytotoxicity. Typically, HCT116 cells were plated into each well of the 96-well tissue culture plate and left overnight to attach to the plate. Compounds at various concentrations (1 uM, 5 uM and 25 uM, in DMSO) were added in triplicate into the culture media (final DMSO concentration 1%) and incubated for 48 hours. MTT solution (obtained from Sigma as powder) was added and incubated with the cells for 4 hours at 37° C. in incubator with 5% CO2. During the incubation, viable cells convert MTT to a water-insoluble formazan dye. Solubilizing buffer (50% N,N-dimethylformamide, 20% SDS, pH 4.7) was added to cells and incubate for overnight at 37C in incubator with 5% CO2. Solubilized dye was quantitated by colorimetric reading at […] using a reference of […].

cell cycle arrest = type: cell-based
human HDAC-1 = target: T2, human HDAC-1 (Homo sapiens, UniProt Q13547); experiment: histone deacetylase enzyme assay, HDAC-1; type: biochemical
T2 construct: made in house; host or cells: insect cells (baculovirus expression system)
Description: as §1, §2

human HDAC-6 = target: T3, human HDAC-6 (Homo sapiens, UniProt Q9UBN7); experiment: histone deacetylase enzyme assay, HDAC-6; type: biochemical
T3 construct: made in house; host or cells: insect cells (baculovirus expression system)
T3 sequence (Q9UBN7 1-1215): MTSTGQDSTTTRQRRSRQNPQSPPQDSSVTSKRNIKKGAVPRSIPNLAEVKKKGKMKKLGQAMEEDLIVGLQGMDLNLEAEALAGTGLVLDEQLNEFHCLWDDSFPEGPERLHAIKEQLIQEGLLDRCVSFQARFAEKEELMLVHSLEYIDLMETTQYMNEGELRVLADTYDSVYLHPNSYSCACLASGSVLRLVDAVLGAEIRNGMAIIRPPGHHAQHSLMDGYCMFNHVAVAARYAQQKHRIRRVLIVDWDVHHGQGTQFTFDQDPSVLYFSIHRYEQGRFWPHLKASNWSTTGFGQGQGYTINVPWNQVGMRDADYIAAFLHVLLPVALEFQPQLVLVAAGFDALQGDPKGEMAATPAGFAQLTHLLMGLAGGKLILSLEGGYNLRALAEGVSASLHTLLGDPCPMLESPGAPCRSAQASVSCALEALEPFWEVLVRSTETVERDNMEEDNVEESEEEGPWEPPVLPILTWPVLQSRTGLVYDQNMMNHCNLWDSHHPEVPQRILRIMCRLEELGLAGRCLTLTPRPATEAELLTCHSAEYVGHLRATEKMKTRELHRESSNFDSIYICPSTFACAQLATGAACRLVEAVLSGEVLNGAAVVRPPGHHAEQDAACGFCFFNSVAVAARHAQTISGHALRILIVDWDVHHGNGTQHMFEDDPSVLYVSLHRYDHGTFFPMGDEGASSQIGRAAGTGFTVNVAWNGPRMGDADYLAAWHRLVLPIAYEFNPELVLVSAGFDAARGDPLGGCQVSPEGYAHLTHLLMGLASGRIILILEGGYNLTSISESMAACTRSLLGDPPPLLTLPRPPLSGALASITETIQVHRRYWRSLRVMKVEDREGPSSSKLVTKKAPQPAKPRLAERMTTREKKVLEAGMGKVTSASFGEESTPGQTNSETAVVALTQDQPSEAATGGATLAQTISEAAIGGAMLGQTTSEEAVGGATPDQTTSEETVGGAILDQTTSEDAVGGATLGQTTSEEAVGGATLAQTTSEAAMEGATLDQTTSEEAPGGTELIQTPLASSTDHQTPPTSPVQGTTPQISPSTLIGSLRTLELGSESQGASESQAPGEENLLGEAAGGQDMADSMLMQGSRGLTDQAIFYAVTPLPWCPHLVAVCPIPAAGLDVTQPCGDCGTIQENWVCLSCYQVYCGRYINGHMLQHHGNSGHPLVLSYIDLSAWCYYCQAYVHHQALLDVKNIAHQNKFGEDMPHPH
Description: as §1, §2

HDAC 2 = HDAC 2 (Homo sapiens, UniProt Q92769); experiment: histone deacetylase enzyme assay, HDAC 2; type: biochemical
Description: as §2

human HDAC-4 = target: T4, human HDAC-4 (Homo sapiens, UniProt P56524); experiment: histone deacetylase enzyme assay, HDAC-4; type: biochemical
T4 construct: Flag; made in house; host or cells: human embryonic kidney 293 cells (calcium phosphate transfection)
Description: Flag-tagged human HDAC-4 enzyme was produced in human embronic kidney 293 cells after transformation by the calcium phosphate precipitation method. Briefly, 293 cells were cultured in Dulbecco's Modified Eagle Medium (DMEM) containing 10% fetal bovine serum and antibiotics. Plasmid DNA encoding Flag-tagged human HDAC-4 was precipitated by ethanol and resuspend in sterile water. DNA-calcium precipitates, formed by mixing DNA, calcium choloride and 2×HEPES-buffered saline solution, were left on 293 cells for 12-16 hours. Cells were return to serum-contained DMEM medium and harvested at 48 hour post transfection for purification of Flag-tagged HDAC-4 enzyme.
as §1, §2

[3] = test system: human colon cancer cells (HCT116); experiment: tumor growth in a mouse model, colon; type: in vivo, BALB/c nude mice; conditions: 40 mg/kg body weight/day, i p; vs vehicle-treated mice
Description: Female BALB/c nude mice were obtained from Charles River Laboratories (Charles River, NY) and used at age 8-10 weeks. Human prostate tumor cells (DU145, 2×10^6) or human colon cancer cells (HCT116; 2×10^6) or small lung core A549 2×10^6 were injected subcutaneously in the animal's flank and allowed to form solid tumors. Tumor fragments were serially passaged a minimum of three times, then approximately 30 mg tumor fragments were implanted subcutaneously through a small surgical incision under general anaesthesia. Small molecule inhibitor administration by intraperotineal or oral administration was initiated when the tumors reached a volume of 100 mm^3. For intraperotineal administration, small molecule inhibitors of HDAC (40-50 mg/kg body weight/day) were dissolved in 100% DMSO and administered daily intraperitoneally by injection. For oral administration, small molecule inhibitors of HDAC (40-50 mg/kg body weight/days) were dissolved in a solution containing 65% polyethylene glycol 400 (PEG 400 (Sigma-Aldridge, Mississauga, Ontario, Calif., Catalogue No. P-3265), 5% ethanol, and 30% water. Tumor volumes were monitored twice weekly up to 20 days. Each experimental group contained at least 6-8 animals. Percentage inhibition was calculated using volume of tumor from vehicle-treated mice as controls.

T4 sequence (P56524 whole entry): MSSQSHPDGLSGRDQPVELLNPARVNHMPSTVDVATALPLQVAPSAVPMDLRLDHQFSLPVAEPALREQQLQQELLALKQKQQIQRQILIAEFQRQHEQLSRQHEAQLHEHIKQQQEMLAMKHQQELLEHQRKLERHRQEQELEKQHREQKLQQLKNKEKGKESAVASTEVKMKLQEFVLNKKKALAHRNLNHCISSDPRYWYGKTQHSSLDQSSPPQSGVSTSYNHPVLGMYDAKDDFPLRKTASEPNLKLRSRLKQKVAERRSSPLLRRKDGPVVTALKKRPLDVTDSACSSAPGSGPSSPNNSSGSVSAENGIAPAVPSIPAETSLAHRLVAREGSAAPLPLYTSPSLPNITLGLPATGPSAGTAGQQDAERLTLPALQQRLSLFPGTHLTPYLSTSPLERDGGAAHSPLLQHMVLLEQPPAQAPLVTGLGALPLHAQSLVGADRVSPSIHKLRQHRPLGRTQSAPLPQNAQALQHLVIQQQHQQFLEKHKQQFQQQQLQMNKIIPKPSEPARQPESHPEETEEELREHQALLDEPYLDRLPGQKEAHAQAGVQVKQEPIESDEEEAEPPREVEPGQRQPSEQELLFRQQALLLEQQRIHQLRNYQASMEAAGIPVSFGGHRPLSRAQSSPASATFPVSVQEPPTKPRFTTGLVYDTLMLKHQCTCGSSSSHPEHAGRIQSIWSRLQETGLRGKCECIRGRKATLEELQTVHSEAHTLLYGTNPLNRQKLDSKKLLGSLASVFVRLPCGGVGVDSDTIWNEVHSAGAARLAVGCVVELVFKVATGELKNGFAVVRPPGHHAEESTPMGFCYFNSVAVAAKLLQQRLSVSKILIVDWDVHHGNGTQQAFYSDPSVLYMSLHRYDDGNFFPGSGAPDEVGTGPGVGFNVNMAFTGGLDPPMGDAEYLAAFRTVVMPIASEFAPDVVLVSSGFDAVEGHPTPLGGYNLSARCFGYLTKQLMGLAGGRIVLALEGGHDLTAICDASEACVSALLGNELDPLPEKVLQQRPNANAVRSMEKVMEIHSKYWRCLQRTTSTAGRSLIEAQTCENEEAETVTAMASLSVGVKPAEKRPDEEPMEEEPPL
T2 sequence (Q13547 whole entry): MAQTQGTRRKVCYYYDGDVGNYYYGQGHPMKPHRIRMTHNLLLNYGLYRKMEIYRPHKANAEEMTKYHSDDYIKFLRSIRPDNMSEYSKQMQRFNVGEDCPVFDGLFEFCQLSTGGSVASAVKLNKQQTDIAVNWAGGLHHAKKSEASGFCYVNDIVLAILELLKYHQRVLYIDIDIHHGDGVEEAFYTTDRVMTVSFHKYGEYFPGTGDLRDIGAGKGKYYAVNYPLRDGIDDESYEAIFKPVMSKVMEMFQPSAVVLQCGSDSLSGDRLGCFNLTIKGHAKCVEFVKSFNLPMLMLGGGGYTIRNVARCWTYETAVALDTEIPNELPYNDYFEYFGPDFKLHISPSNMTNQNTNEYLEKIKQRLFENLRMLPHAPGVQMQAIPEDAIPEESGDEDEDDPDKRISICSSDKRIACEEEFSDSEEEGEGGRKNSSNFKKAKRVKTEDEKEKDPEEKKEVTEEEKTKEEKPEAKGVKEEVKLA
T1 sequence (O15379 whole entry): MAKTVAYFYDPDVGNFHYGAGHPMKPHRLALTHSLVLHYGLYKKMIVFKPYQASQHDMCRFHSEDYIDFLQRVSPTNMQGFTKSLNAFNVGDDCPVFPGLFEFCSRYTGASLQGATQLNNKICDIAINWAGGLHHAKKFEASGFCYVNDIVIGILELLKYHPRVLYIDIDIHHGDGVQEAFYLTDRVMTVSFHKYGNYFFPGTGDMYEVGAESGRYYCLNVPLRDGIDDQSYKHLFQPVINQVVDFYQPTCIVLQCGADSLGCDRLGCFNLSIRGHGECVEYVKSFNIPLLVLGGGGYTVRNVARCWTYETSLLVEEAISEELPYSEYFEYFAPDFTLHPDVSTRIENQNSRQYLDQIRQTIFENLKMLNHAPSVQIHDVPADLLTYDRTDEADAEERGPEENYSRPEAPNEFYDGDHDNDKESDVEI
Chain of HDAC 2 (Q92769 whole entry): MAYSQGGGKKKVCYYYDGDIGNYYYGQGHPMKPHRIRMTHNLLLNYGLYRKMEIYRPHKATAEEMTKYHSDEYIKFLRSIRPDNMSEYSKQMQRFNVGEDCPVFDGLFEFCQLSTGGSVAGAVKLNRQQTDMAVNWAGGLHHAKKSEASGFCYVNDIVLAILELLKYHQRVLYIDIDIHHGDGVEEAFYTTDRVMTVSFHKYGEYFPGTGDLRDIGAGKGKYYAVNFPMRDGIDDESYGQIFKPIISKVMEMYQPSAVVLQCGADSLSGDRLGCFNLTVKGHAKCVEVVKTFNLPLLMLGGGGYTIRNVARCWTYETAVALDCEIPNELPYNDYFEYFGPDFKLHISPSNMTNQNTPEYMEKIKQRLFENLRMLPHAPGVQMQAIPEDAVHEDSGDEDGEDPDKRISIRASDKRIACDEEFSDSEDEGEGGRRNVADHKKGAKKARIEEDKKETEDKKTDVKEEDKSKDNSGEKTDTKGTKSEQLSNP

Structure (SMILES)	IC50 (human HDAC-3) [µM]	p21 induction (p21) [µM]	effective concentration for histone H4 acetylation [1] [µM]	IC50 [2] [µM]	cell cycle arrest EC (cell cycle arrest) [µM]	IC50 (human HDAC-1) [µM]	IC50 (human HDAC-6) [µM]	IC50 (HDAC 2) [µM]	IC50 (human HDAC-4) [µM]	% inh. of tumor formation in vivo, colon [3]
CC(/C=C/C(=O)Nc1ccccc1N)=C\C(C)C(=O)c1ccc(N(C)C)cc1 (stereo not drawn) [MG 242 9]	21	3	1	1	2	3	> 50	25	23	–
Cc1ccc(S(=O)(=O)Nc2ccc(/C=C/C(=O)Nc3ccccc3N)cc2)cc1 [MG 376 3]	45	2	5	4	2	3	> 50	–	28	55 (40, i p) %
